Experimental data: patent US20120108557A1, “FLUOROQUINOLONE DERIVATIVES FOR OPHTHALMIC APPLICATIONS” (ALCON RESEARCH, LTD., priority 2008, published 2012)

Legend:
Test in all cases: In vitro antimicrobial activity, agar dilution MIC
Assay type in all cases: cell-based
Acinetobacter baumannii = conditions: test organism 26, Acinetobacter baumannii
Procedure: (§1) The activity of the compounds of the present invention was evaluated using an in vitro assay. Microorganisms were prepared from growth on agar media, in broth culture, or from thawed cryopreserved cultures. Fungal cultures were filtered to remove mycelial elements.
(§2) Using Mueller Hinton II Broth, 0.9% saline or other appropriate media, a suspension of each culture was prepared and adjusted to a turbidity equivalent to that of a 0.5 McFarland Standard. (Cultures adjusted to the 0.5 McFarland Standard generally contain approximately 1.0×10^8 CFU/mL). The adjusted suspension for each culture was diluted 1:10 in the appropriate media so that the inoculum concentration approximates 1.0×10^7 CFU/mL.
(§3) The antimicrobial agent to be tested was weighed and diluted with a volume of sterile distilled water calculated to yield the necessary starting concentration. Serial 1:2 dilutions of the antimicrobial agent in sterile distilled water were prepared (approximately 10-12 test concentrations comprise a reasonable experimental range). A known amount of each antimicrobial dilution was combined with an aliquot of agar medium calculated to yield the desired final antimicrobial test concentration and dispensed onto plates.
(§4) The amount of antimicrobial agent to be weighed was determined using the following equation: […]
(§5) Antimicrobial stock solutions were prepared at concentrations 5-10 times the highest concentration to be tested (routinely 1024 μg/mL). […] The stock solution was diluted to appropriate concentration using sterile water to form a working solution. The working solution was diluted two-fold, in sterile water, until the desired concentration is obtained.
(§6) Mueller Hinton II agar was prepared as described by the manufacturer. Mueller Hinton II agar may be supplemented with 5% defibrinated sheep blood for testing streptococci. Agar was added to the serially diluted antimicrobial solution in each container. The solutions were mixed thoroughly and poured into petri dishes (about 25 mL/plate). The pH of the agar at 25° C. should be between 7.2 and 7.4.
(§7) At least one inocula control plate was inoculated (agar medium without antimicrobial agent) from each seed plate before inoculating test plates. Test plates were inoculated starting at the lowest concentration and proceeding to the highest concentration. After all test plates were inoculated, an additional control plate (agar medium without antimicrobial agent) was inoculated. The plates were incubated in a non-CO2 incubator (or CO2 incubator depending on growth requirements); 18-24 hours at 32-35° C. was sufficient for most organisms.
(§8) All inoculation points on the agar surface were examined for the presence of growth as compared to the inoculum control plates. The results were summarized and use to determine Minimal Inhibitory Concentrations (MICs): The MIC is the lowest concentration of the antimicrobial agent which prevents visible growth of the organism (negative score).

Acinetobacter junii = test system: Acinetobacter junii
Procedure: as §1, §2, §3, §4, §5, §6, §7, §8

[1] = test system: Corynebacterium amycolatum
Procedure: as §1, §2, §3, §4, §5, §6, §7, §8

Enterobacter hormaechei = test system: Enterobacter hormaechei
Procedure: as §1, §2, §3, §4, §5, §6, §7, §8

Enterococcus faecalis = test system: Enterococcus faecalis
Procedure: as §1, §2, §3, §4, §5, §6, §7, §8

Escherichia coli = test system: Escherichia coli
Procedure: as §1, §2, §3, §4, §5, §6, §7, §8

MRSA = test system: MRSA
Procedure: as §1, §2, §3, §4, §5, §6, §7, §8

MRSE = test system: MRSE
Procedure: as §1, §2, §3, §4, §5, §6, §7, §8

MSSA = conditions: test organism 6, MSSA
Procedure: as §1, §2, §3, §4, §5, §6, §7, §8

Morganella morganii = test system: Morganella morganii
Procedure: as §1, §2, §3, §4, §5, §6, §7, §8

Pseudomonas aeruginosa = test system: Pseudomonas aeruginosa
Procedure: as §1, §2, §3, §4, §5, §6, §7, §8

Serratia marcescens = test system: Serratia marcescens
Procedure: as §1, §2, §3, §4, §5, §6, §7, §8

Staphylococcus aureus = test system: Staphylococcus aureus
Procedure: as §1, §2, §3, §4, §5, §6, §7, §8

[2] = test system: Staphylococcus epidermidis
Procedure: as §1, §2, §3, §4, §5, §6, §7, §8

[3] = test system: Staphylococcus haemolyticus
Procedure: as §1, §2, §3, §4, §5, §6, §7, §8

[4] = test system: Stenotrophomonas maltophilia
Procedure: as §1, §2, §3, §4, §5, §6, §7, §8

Streptococcus mitis = test system: Streptococcus mitis
Procedure: as §1, §2, §3, §4, §5, §6, §7, §8

Streptococcus pneumoniae = test system: Streptococcus pneumoniae
Procedure: as §1, §2, §3, §4, §5, §6, §7, §8

[5] = test organism 27, Acinetobacter junii
[6] = test organism 28, Acinetobacter junii
[7] = test organism 29, Acinetobacter junii
[8] = test organism 24, Corynebacterium amycolatum
[9] = test organism 25, Corynebacterium amycolatum
[10] = test organism 31, Enterobacter hormaechei
[11] = test organism 15, Enterococcus faecalis
[12] = test organism 16, Enterococcus faecalis
[13] = test organism 17, Enterococcus faecalis
[14] = test organism 18, Enterococcus faecalis
[15] = test organism 32, Escherichia coli
[16] = test organism 33, Escherichia coli
[17] = test organism 34, Escherichia coli
[18] = test organism 35, Morganella morganii
[19] = test organism 36, Morganella morganii
[20] = test organism 37, Pseudomonas aeruginosa
[21] = test organism 38, Pseudomonas aeruginosa
[22] = test organism 39, Serratia marcescens
[23] = test organism 40, Serratia marcescens
[24] = test organism 1, Staphylococcus aureus
[25] = test organism 2, Staphylococcus aureus
[26] = test organism 7, Staphylococcus epidermidis
[27] = test organism 8, Staphylococcus epidermidis
[28] = test organism 12, Staphylococcus haemolyticus
[29] = test organism 13, Staphylococcus haemolyticus
[30] = test organism 14, Staphylococcus haemolyticus
[31] = test organism 41, Stenotrophomonas maltophilia
[32] = test organism 42, Stenotrophomonas maltophilia
[33] = test organism 21, Streptococcus mitis
[34] = test organism 22, Streptococcus mitis
[35] = test organism 23, Streptococcus mitis
[36] = test organism 19, Streptococcus pneumoniae
[37] = test organism 20, Streptococcus pneumoniae

Measured: Minimal Inhibitory Concentration (MIC)

CN1CCCC2CN(c3c(F)cc4c(=O)c(C(=O)O)cn(C5CC5)c4c3F)CC21 (stereo not shown) [Compound 1]
0.25: [2]; [26] | [3]; [28] | [4]; [32] | Streptococcus mitis; [34]
≦0.03: Acinetobacter junii; [6]
0.5: Acinetobacter baumannii | Enterococcus faecalis; [11] | Morganella morganii; [18] | Streptococcus mitis; [33] | Streptococcus pneumoniae; [37]
≦0.25: Acinetobacter junii; [5] | Escherichia coli; [16] | Staphylococcus aureus; [25]
0.125: Streptococcus pneumoniae; [36]
0.06: [1]; [8] | Escherichia coli; [15] | Staphylococcus aureus; [24]
1: Serratia marcescens; [22] | Serratia marcescens; [23]
2: Acinetobacter junii; [7] | Morganella morganii; [19] | Pseudomonas aeruginosa; [21] | [3]; [29] | Streptococcus mitis; [35]
4: Enterobacter hormaechei; [10] | MRSA; test organism 4, MRSA
>4: [1]; [9] | Enterococcus faecalis; [13] | Escherichia coli; [17] | MRSE; test organism 11, MRSE | MSSA | Pseudomonas aeruginosa; [20] | [3]; [30] | [4]; [31]
>2: Enterococcus faecalis; [12] | Enterococcus faecalis; [14] | MRSA; test organism 3, MRSA | MRSA; test organism 5, MRSA | MRSE; test organism 9, MRSE | MRSE; test organism 10, MRSE | [2]; [27]

Nc1c(F)c(N2CC3CCCNC3C2)c(F)c2c1c(=O)c(C(=O)O)cn2C1CC1 [Compound 3 (S,S)]
>2: Enterococcus faecalis; [14] | MRSA; test organism 5, MRSA | MRSE; test organism 9, MRSE | MRSE; test organism 10, MRSE
>4: Acinetobacter junii; [7] | [1]; [9] | Enterococcus faecalis; [13] | Escherichia coli; [17] | MRSE; test organism 11, MRSE | Pseudomonas aeruginosa; [20] | [3]; [30]
≦0.25: Acinetobacter baumannii | Acinetobacter junii; [5] | Escherichia coli; [16] | Staphylococcus aureus; [25] | Streptococcus mitis; [33] | Streptococcus pneumoniae; [37]
1: MRSA; test organism 3, MRSA | Morganella morganii; [19] | Serratia marcescens; [23] | [3]; [29] | Streptococcus mitis; [35]
4: Enterobacter hormaechei; [10] | MSSA
0.125: Enterococcus faecalis; [11] | Morganella morganii; [18] | [3]; [28] | [4]; [32] | Streptococcus mitis; [34] | Streptococcus pneumoniae; [36]
0.5: [1]; [8] | Enterococcus faecalis; [12] | Pseudomonas aeruginosa; [21] | Serratia marcescens; [22] | [2]; [26] | [2]; [27]
≦0.03: Staphylococcus aureus; [24]
2: MRSA; test organism 4, MRSA | [4]; [31]
0.06: Acinetobacter junii; [6] | Escherichia coli; [15]

Nc1c(F)c(N2CC3CCCNC3C2)c(F)c2c1c(=O)c(C(=O)O)cn2C1CC1 (racemic) [Compound 3 (racemic)]
0.5: Acinetobacter baumannii | Enterobacter hormaechei; test organism 30, Enterobacter hormaechei | Morganella morganii; [18] | Serratia marcescens; [22] | Staphylococcus aureus; [25] | Streptococcus mitis; [33] | Streptococcus pneumoniae; [37]
0.125: Acinetobacter junii; [6] | Enterococcus faecalis; [11] | [3]; [28]
≦0.03: Staphylococcus aureus; [24] | [4]; [32] | Streptococcus pneumoniae; [36]
4: Enterobacter hormaechei; [10] | [4]; [31]
0.06: [1]; [8] | Escherichia coli; [15] | [2]; [26] | Streptococcus mitis; [34]
>2: Enterococcus faecalis; [14] | MRSA; test organism 3, MRSA | MRSA; test organism 5, MRSA | MRSE; test organism 9, MRSE | MRSE; test organism 10, MRSE | [2]; [27]
>4: Acinetobacter junii; [7] | [1]; [9] | Enterococcus faecalis; [13] | Escherichia coli; [17] | MRSE; test organism 11, MRSE | MSSA | Pseudomonas aeruginosa; [20] | [3]; [30]
1: Enterococcus faecalis; [12] | Morganella morganii; [19] | Serratia marcescens; [23] | [3]; [29] | Streptococcus mitis; [35]
≦0.25: Acinetobacter junii; [5] | Escherichia coli; [16]
2: MRSA; test organism 4, MRSA | Pseudomonas aeruginosa; [21]
